Laboratory results taken from article PMC5923142, “Selection and Characterization of Rupintrivir-Resistant Norwalk Virus Replicon Cells In Vitro” (Antimicrobial Agents and Chemotherapy, 2018).

Tested on: recombinant MNV I109V mutant
Test: Antiviral effect against recombinant MNV I109V mutant infection of BV-2 cells (TCID50)
Type: cell-based, murine norovirus
Conditions: MOIs 0.1 and 1
Experimental: BV-2 cells were infected with recombinant WT MNV or the MNV I109V mutant at an MOI of 0.1 or 1 for 1 h in the CO2 incubator at 37°C. After incubation, the supernatant was removed and the cells were washed twice with PBS, and then complete DMEM containing various concentrations of rupintrivir or 2CMC was added to the cells. After 24 h for incubation, the virus titers of the supernatant were determined by measurement of the TCID50. On the basis of the TCID50, the 90% effective concentration (EC90) values of rupintrivir and 2CMC were calculated using XLfit (version 5.3) software.

Q: `C[C@@]1(O)[C@H](O)[C@@H](CO)O[C@H]1n1ccc(N)nc1=O` [2CMC, 2-C-methylcytidine] was tested. Which “difference in EC90 values between I109V and WT viruses” value did it give?
A: The value was “no significant difference”.
